Data reported in the supplement of paper PMC10307832.

Assays:
Test in all cases: relative viability (nuclei count vs DMSO), 5 days (fraction); higher = more cells survive
[1] = compound: Cc1nc(Nc2ncc(C(=O)Nc3c(C)cccc3Cl)s2)cc(N2CCN(CCO)CC2)n1 [Dasatinib] + COc1cc2c(Oc3ccc(NC(=O)C4(C(=O)Nc5ccc(F)cc5)CC4)cc3F)ccnc2cc1OCCCN1CCOCC1 [Foretinib] (partner 0.25 µM)
Summary of the method: (§1)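 For relative viability, nuclei counts in treated wells were divided by those in vehicle wells. Lung cancer cell lines had been pin-tool dosed in 1536-well plates the day after seeding and cultured for 5 days, then fixed and stained in one step (final 0.05% Triton X-100, 1% formaldehyde, 1 ug/ml Hoechst) and imaged at 4×. Doses were one drug alone or a fixed anchor-drug dose plus five library-drug doses (not always all listed) in √10 steps, and values are duplicate-plate medians.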

[2] = compound: Cc1ccc(C(=O)Nc2cccc(C(F)(F)F)c2)cc1Nc1cncc(C(N)=O)c1 [ALW-II-49-7] + C[C@@H](Oc1cc(-c2cnn(C3CCNCC3)c2)cnc1N)c1c(Cl)ccc(F)c1Cl [Crizotinib] (partner 1 µM)
Summary of the method: as §1

[3] = compound: Cc1ccc(C(=O)Nc2cccc(C(F)(F)F)c2)cc1Nc1cncc(C(N)=O)c1 [ALW-II-49-7] + CC(=O)c1c(C)c2cnc(Nc3ccc(N4CCNCC4)cn3)nc2n(C2CCCC2)c1=O [Palbociclib] (partner 0.5 µM)
Summary of the method: as §1

[4] = compound: C1CC1C(=O)NC2=NNC3=C2C=CC(=C3)C4=CC(=CC=C4)C(=O)NC5CC5 [XMD13-2] + N=C(N)NC(=N)NCCc1ccccc1 [Phenformin] (partner 250 µM)
Summary of the method: as §1

Cell Line: NCI-H1437
- relative viability ([1]; first compound 0.005 µM): 1.25
- relative viability ([1]; first compound 0.01581 µM): 1.23
- relative viability ([1]; first compound 0.05 µM): 1.32
- relative viability ([1]; first compound 0.1581 µM): 1.07
- relative viability ([1]; first compound 0.5 µM): 0.848
- relative viability ([2]; first compound 0.08 µM): 0.897
- relative viability ([2]; first compound 0.253 µM): 0.865
- relative viability ([2]; first compound 2.53 µM): 0.869
- relative viability ([2]; first compound 8 µM): 0.896
- relative viability ([3]; first compound 0.08 µM): 0.288
- relative viability ([3]; first compound 0.253 µM): 0.318
- relative viability ([3]; first compound 0.8 µM): 0.286
- relative viability ([3]; first compound 2.53 µM): 0.34
- relative viability ([3]; first compound 8 µM): 0.315
- relative viability ([4]; first compound 0.05 µM): 0.297
- relative viability ([4]; first compound 0.1581 µM): 0.305
- relative viability ([4]; first compound 0.5 µM): 0.299
- relative viability ([4]; first compound 1.581 µM): 0.311
- relative viability ([4]; first compound 5 µM): 0.341

Cell Line: NCI-H1650
- relative viability ([1]; first compound 0.005 µM): 0.877
- relative viability ([1]; first compound 0.01581 µM): 0.64
- relative viability ([1]; first compound 0.05 µM): 0.635
- relative viability ([1]; first compound 0.1581 µM): 0.247
- relative viability ([1]; first compound 0.5 µM): 0.262
- relative viability ([2]; first compound 0.08 µM): 0.946
- relative viability ([2]; first compound 0.253 µM): 0.859
- relative viability ([2]; first compound 0.8 µM): 0.931
- relative viability ([2]; first compound 2.53 µM): 1.01
- relative viability ([2]; first compound 8 µM): 1.14
- relative viability ([3]; first compound 0.08 µM): 0.328
- relative viability ([3]; first compound 0.253 µM): 0.314
- relative viability ([3]; first compound 0.8 µM): 0.338
- relative viability ([3]; first compound 2.53 µM): 0.397
- relative viability ([3]; first compound 8 µM): 0.41
- relative viability ([4]; first compound 0.05 µM): 0.634
- relative viability ([4]; first compound 0.1581 µM): 0.476
- relative viability ([4]; first compound 0.5 µM): 0.552
- relative viability ([4]; first compound 1.581 µM): 0.432
- relative viability ([4]; first compound 5 µM): 0.558

Cell Line: NCI-H1651
- relative viability ([1]; first compound 0.005 µM): 0.81
- relative viability ([1]; first compound 0.01581 µM): 0.666
- relative viability ([1]; first compound 0.05 µM): 0.673
- relative viability ([1]; first compound 0.1581 µM): 0.646
- relative viability ([1]; first compound 0.5 µM): 0.445
- relative viability ([2]; first compound 0.08 µM): 0.947
- relative viability ([2]; first compound 0.253 µM): 0.767
- relative viability ([2]; first compound 0.8 µM): 0.823
- relative viability ([2]; first compound 2.53 µM): 0.862
- relative viability ([2]; first compound 8 µM): 0.835
- relative viability ([3]; first compound 0.08 µM): 0.522
- relative viability ([3]; first compound 0.253 µM): 0.476
- relative viability ([3]; first compound 0.8 µM): 0.49
- relative viability ([3]; first compound 2.53 µM): 0.439
- relative viability ([3]; first compound 8 µM): 0.444
- relative viability ([4]; first compound 0.05 µM): 0.382
- relative viability ([4]; first compound 0.1581 µM): 0.323
- relative viability ([4]; first compound 0.5 µM): 0.392
- relative viability ([4]; first compound 1.581 µM): 0.37
- relative viability ([4]; first compound 5 µM): 0.343

Cell Line: NCI-H1666
- relative viability ([1]; first compound 0.005 µM): 1.12
- relative viability ([1]; first compound 0.01581 µM): 0.989
- relative viability ([1]; first compound 0.05 µM): 1.07
- relative viability ([1]; first compound 0.1581 µM): 0.862
- relative viability ([1]; first compound 0.5 µM): 0.425
- relative viability ([2]; first compound 0.08 µM): 0.948
- relative viability ([2]; first compound 0.253 µM): 0.964
- relative viability ([2]; first compound 0.8 µM): 0.909
- relative viability ([2]; first compound 2.53 µM): 1.06
- relative viability ([2]; first compound 8 µM): 0.965
- relative viability ([3]; first compound 0.08 µM): 0.663
- relative viability ([3]; first compound 0.253 µM): 0.655
- relative viability ([3]; first compound 0.8 µM): 0.692
- relative viability ([3]; first compound 2.53 µM): 0.67
- relative viability ([3]; first compound 8 µM): 0.666
- relative viability ([4]; first compound 0.05 µM): 0.544
- relative viability ([4]; first compound 0.1581 µM): 0.6
- relative viability ([4]; first compound 0.5 µM): 0.595
- relative viability ([4]; first compound 1.581 µM): 0.546
- relative viability ([4]; first compound 5 µM): 0.593
